Experimental data from patent US20170208848A1, “PROCESS FOR MANUFACTURING AN IRON FORTIFIED FOOD PRODUCT” (NESTEC S.A., priority 2014, published 2017).

Experiment: Browning of the sprayed regions of the edible material with polysaccharide in the liquid composition
Assay type: physicochemical
Details: polysaccharide included in the liquid composition
Excerpt: The polysaccharide comprised in the liquid composition of the process of the invention may be selected from the group consisting of maltodextrin, acacia gum, agar-agar, carrageenan, tragacanth, locust bean gum, guar gum, xanthan gum and combinations of these. […] The polysaccharide may be carrageenan or acacia gum.

| Substance | browning of the sprayed regions of the edible material |
| --- | --- |
| Carrageenan | particularly effective at preventing or delaying browning |
| acacia gum | particularly effective at preventing or delaying browning |
